Values of other authors, collected in patent US20100062066A1, “Formulations of Tetrahydropyridine Antiplatelet Agents for Parenteral or Oral Administration” (Acusphere, Inc, priority 2006, published 2010).

Test system: platelet aggregation
Conditions: background statement on clopidogrel enantiomers

Row | SMILES | anti-aggregation activity
1 | COC(=O)C(c1ccccc1Cl)N1CCc2sccc2C1 (single isomer, unassigned) [R-enantiomer] | does not exhibit any anti-aggregation activity
2 | COC(=O)[C@H](c1ccccc1Cl)N1CCc2sccc2C1 (single isomer, unassigned; enantiomer 2) [S-enantiomer, 2-(2-chlorophenyl)-2-(2,4,5,6,7,7a-tetrahydrothieno[3,2-c]pyridine)-5-yl-acetic acetic acid methyl ester] | biologically active
